Consider four molecules from patent US12139531B2, “Compositions and methods useful in promoting milk production” (The Regents of the University of California, priority 2019, dated 2024).

Entries after “also recorded” stand apart in the source; their conditions may differ.

The test system of one experiment is Notch. The experiment in a line: In vivo gamma secretase inhibitor treatment; number of FACS-purified alveolar progenitor cells. Further details: species or system mice. The following applies: 10 mg/kg GSI orally, mature virgin. The protocol:
(§1) In further work, Notch signaling was inhibited to attempt to reverse the Robo1−/− phenotype. A γ-inhibitor that has been previously employed successfully in vivo to inhibit Notch in several different organs^26-28, including the mammary gland^29, was selected. Mature virgin animals were treated for […] with 10 mg/kg of the GSI or vehicle control^29 (FIG. 4C). After the treatment, mammary glands were harvested and analyzed by FACS and qPCR. It was observed that Robo1−/− mammary glands contain a higher number of alveolar progenitor cells relative to WT controls (FIG. 4D). […] GSI treatment had no effect on the number of alveolar progenitor cells in WT animals (FIG. 4D).
Mechanically dissociated inguinal and thoracic mammary fat pads were prepared into cell suspension for FACS as described^17. AVPs were isolated using FITC-CD14 (clone Sa14-2; BioLegend) and […] (clone 2B8; BioLegend) as described^14.
(§2) GSI inhibitor (R04929097; MedchemExpress) was orally administer at 10 mg/kg for 5 days as described^29. Mammary glands were harvest after 5 days of GSI or vehicle treatment and prepared for single cell analysis. Purified populations were collected and processed for RNA. Purified population numbers were analyzed using FlowJo.

Experiment [1] has as its system HC11 cells. Put plainly: RT-qPCR of milk genes (WAP, Lalba) in differentiated HC11 cells. The format is cell-based, mouse. The protocol: To determine whether the promotion of dome formation also results in higher milk production, HC11 cells were differentiated in the presence or absence of ROBO1-ECD fragments that were added to cells simultaneously with DIP media. Cells were harvested and the expression of WAP and Lalba assessed by RT-qPCR. […] WAP expression levels were not increased in cells treated with DCC-Ig4 (FIG. 7K). Next, Western blot analysis of WAP and PLIN2 was performed on cells treated with ROBO1-Ig5 and ROBO1-Ecto.
(§3) HC11 cells were grown in RPMI 1640 media (Gibco) supplemented with 10% fetal bovine serum (BioFluid Technologies), 5 μg/mL insulin (Sigma), and 10 ng/ml epidermal growth factor (EGF; Sigma). To induce differentiation in HC11 cells, confluent plates were given fresh media (RPMI 1640 media supplemented with 5% charcoal-stripped fetal bovine serum (BioFluid Technologies), 5 μg/mL insulin, and 10 ng/ml epidermal growth factor (EGF; Sigma) for 3 days followed by 24 hours of priming in priming medium (RPMI 1640 media supplemented with 5% charcoal-stripped fetal bovine serum (BioFluid Technologies), and 5 μg/mL insulin. After priming, DIP medium (RPMI 1640 media supplemented with 5% charcoal-stripped fetal bovine serum (BioFluid Technologies), 10^−6 M dexamethasone (Sigma), 5 μg/mL insulin, and 5 μg/mL prolactin (National Hormone and Peptide program) was added with fresh media every 24 hours.
Total RNA was harvested from cells lysed in TRIzol reagent (Invitrogen) and phase separated according to manufacturer's protocol with an additional overnight RNA precipitation stem in ethanol (Macias et al., 2011). The RNA was further purified with TURBO DNase (Ambion) treatment. Total RNA quality was analyzed by agarose gel electrophoresis and quantified with an ND-1000 spectrophotometer (NanoDrop). cDNA libraries were prepared from 1 μg of total RNA using iScript cDNA synthesis kit (BioRad). Quantitative RT-PCR was performed in triplicates using light Cycler 480 SYBR Green I Master (Roche) and quantified using BioRad CFX'Connect Real-Time System and CFX Manager software (BioRad). […]
For orientation: Real-time PCR tracks product formation cycle by cycle.

In experiment [2] the test system is HC11 cells. The experiment in a line: HC11 dome assay (milk dome formation on differentiation in DIP media). The format is cell-based, mouse. The following applies: for dome formation in response to a titration of ECD fragments: HC11 cells, increasing ECD concentration. The protocol: To investigate ROBO1 function during alveologenesis, Robo1 gene expression was inhibited in HC11 cells (Robo1 KD). HC11 cells are a well-established, prolactin-responsive model of lactation,^19,20. Cells in which Robo1 gene expression was not inhibited are referred to as WT or Robo1+/+ herein. To measure milk production, cells were grown to confluence and then primed by treatment with epidermal growth factor (EGF, 10 ng/ml). The EGF is administered for three days in combination with charcoal-stripped fetal bovine serum, followed by one day of charcoal-stripped fetal bovine serum in the absence of EGF. These primed cells are then differentiated by treatment with dexamethasone (1 μg/ml), insulin (5 μg/ml) and prolactin (Prl, 5 μg/ml) media (DIP media) for between 3 and 5 days (FIG. 2A). Differentiation (Dif) results in the development of milk-filled domes (FIG. 2B). […] If the cells were left undifferentiated (Undif), there was little dome formation in either WT or Robo1−/− cells (FIG. 2B). Next, tissue from Robo1 knockout mice (Robo1−/−) and wild type mice (WT or Robo1+/+) mice was analyzed. Mammary glands were harvested from pregnant day 18 WT and Robo1−/− animals and alveologenesis analyzed by serially sectioning, carmine staining and then quantifying the area occupied by alveoli in sections located at top, middle and bottom portions of the tissue.
Dome number formation in response to a titration of ROBO1 ECD fragments was quantified. […] A bovine ROBO1-Ig5 construct was also tested in this assay and, as with the rat constructs, more domes were formed in response to treatment with higher concentrations of […] (FIG. 7H).
as §3

A further experiment deals with NOTCH4. The experiment in a line: Cell fractionation and Western blot for HES1 and NOTCH4-ICD in HC11 cells. The format is cell-based, mouse. The following applies: siR1+GSI, primed/differentiated HC11 cells, nuclear fraction. The protocol: Notch receptor activation can be regulated through direct interactions with binding partners^24. […] To address this possibility, co-immunoprecipitation experiments were performed using MBA-MD-231 cells lysates, which express detectable levels of all four Notch receptors (NOTCH1-4). Endogenous ROBO1 co-immunoprecipitated with NOTCH4, but not […], NOTCH2 or NOTCH3 (FIG. 3H and data not shown). Next, the expression and subcellular localization of the NOTCH4 intracellular domain (N4-ICD) and HES1 was examined in control (Scr) and Robo1 (siR1) knockdown HC11 cells. Expression of Robo1 was inhibited in HC11 cells that were then primed for differentiation as described above. […] This effect was not observed in control Robo1 knockdown cells engineered to overexpress Robo1 (siR1+o/e) or cells treated with the γ-secretase inhibitor GSI (siR1+GSI) (FIGS. 3I-3K).
To examine the effects of ROBO1-ECD fragments on Notch signaling, HC11 cells were treated with ROBO1-ECD fragments and Notch effector expression assessed. […] In addition, HC11 cells were treated with ROBO-Ig5 during differentiation. These cells were then fractionated and a Western blot performed to detect HES1 and NOTCH4-ICD (FIG. 8B).
Protein lysates were prepared by directly lysing adherent cells in 1× sample buffer supplemented with 5% beta-mercaptoethanol and boiled for 5 minutes. Protein lysate was resolved by SDS-PAGE and transferred to a PVDF for 90 minutes at 400 mA or overnight at 30 mA. Primary antibodies were used at the concentration indicated in Table 1 and incubated overnight at 4° C. HRP conjugated secondary antibodies (Jackson Labs) were used at 1:3000 and incubated for 45 minutes at room temp. All proteins were detected using Clarity ECL (BioRad) using a BioRad Chemi-Doc MP Imager and quantified using ImageLab software as previously described a.
For orientation: A western blot detects proteins with antibodies after separation by electrophoresis.

A further experiment relates to Notch signaling. The experiment in a line: In vivo gamma secretase inhibitor treatment; RT-qPCR on FACS-purified alveolar progenitor cells. Also noted: species or system mice. The following applies: GSI-treated vs vehicle-treated. The protocol: as §1
Robo1−/− alveolar progenitor cells (AVPs) expressed higher levels of Hey1 and Hes1 with vehicle treatment compared to AVPs from vehicle-treated WT animals (FIG. 4E). […] Vehicle-treated Robo1−/− alveolar progenitor cells (AVPs) expressed lower levels of Elf5 than AVPs from vehicle-treated WT animals (FIG. 4E). This is consistent with the observation of lower levels of ELF5 expression in Robo1−/− compared to Robo1+/+ mammary glands (FIG. 2H), and lower Elf5 in Robo1 knockdown compared to control (Scr) HC11 cells (FIG. 3C). […] In the absence of Robo1, NOTCH4 is activated—an effect that is reversed by either pharmacological inhibition of Notch signaling (FIGS. 4E, 3E, 3F, 3I-K) or knockdown of Notch4 gene expression (FIGS. 3F,G).
as §2
Total RNA was harvested from cells lysed in TRIzol reagent (Invitrogen) and phase separated according to manufacturer's protocol with an additional overnight RNA precipitation stem in ethanol (Macias et al., 2011). The RNA was further purified with TURBO DNase (Ambion) treatment. Total RNA quality was analyzed by agarose gel electrophoresis and quantified with an ND-1000 spectrophotometer (NanoDrop). cDNA libraries were prepared from 1 μg of total RNA using iScript cDNA synthesis kit (BioRad). Quantitative RT-PCR was performed in triplicates using light Cycler 480 SYBR Green I Master (Roche) and quantified using BioRad CFX'Connect Real-Time System and CFX Manager software (BioRad). Results were normalized to GAPDH.

In another experiment the test system is HEK-293 cells. Put plainly: Dot blot dilution assay of ROBO1-Ig5 secretion into media of transfected HEK-293 cells. The following applies: heparin 300 ng/ml, media days two, four, six. The format is cell-based. From the text:
Three recombinant ROBO1 ECD constructs were constructed: one comprising two immunoglobulin (Ig) domains (ROBO1-Ig2), another comprising all five Ig domains (ROBO1-Ig5), and another comprising the entire extracellular domain (ROBO1-Ecto) (FIG. 6A). In other constructs, HA (hemagglutinin), Myc, and human and mouse immunoglobulin Fc were fused to the Robo1 ECDs (FIG. 6A, 5F right). Extracellular domains of Deleted in Colorectal Cancer (DCC), a structurally similar Ig superfamily member to ROBO1, comprising either two Ig (DCC-Ig2) or four Ig (DCC-Ig4) domains and tagged with HA were constructed for use as negative controls (FIG. 6A, 5F right). Expression secretion of the constructs was confirmed by overexpressing the constructs in HEK293 cells and performing Western blots on cell lysates and media (FIG. 6B). […] Robo1-Ig5 as used herein was expressed in HEK-293 cells in the absence and presence of heparin (300 ng/ml). Media were collected from these ROBO1-Ig5 overexpressing cells on days two, four and six following plasmid transfection. Dot blot dilution assays of the collected media were performed to evaluate the relative secretion of this soluble ROBO1 ECD (FIG. 6C).

Take `CC(C)(C(=O)NCC(F)(F)C(F)(F)F)C(=O)N[C@@H]1C(=O)Nc2ccccc2-c2ccccc21` [GSI]: the “number of alveolar progenitor cells” value in the experiment on Notch (Robo1-/- animals) is reported as “same number of alveolar progenitor cells as WT animals”. Further, the “number of alveolar progenitor cells” value with Notch (WT animals) was “no effect”. Moreover, in the experiment with HC11 cells [1] (siR1+GSI), the “decreased Lalba expression in Robo1 knockdown (siR1) HC11 cells” value is “rescued” and the “decreased WAP expression in Robo1 knockdown (siR1) HC11 cells” value is “rescued”. Also, the “decreased dome formation in Robo1 knockdown (KD) HC11 cells” value with HC11 cells [2] (Robo1 KD HC11 cells plus GSI) is “rescued”. Besides, in the experiment with NOTCH4, the “higher nuclear HES1 in Robo1 knockdown cells” value was “not observed; also recorded: rescues the effect” and the “higher nuclear NOTCH4 intracellular domain (N4-ICD) in Robo1 knockdown cells” value is listed as “not observed; also recorded: rescues the effect”. Also, in the experiment on Notch signaling (Robo1+/+ animals), the “Hes1 expression in AVPs” value is recorded as “less expression; also recorded: decreased” and the “Hey1 expression in AVPs” value is recorded as “less expression; also recorded: decreased”. Moreover, in the experiment on Notch signaling (Robo1-/- animals), the “Elf5 expression in AVPs” value is recorded as “higher; also recorded: rescued”, the “Hes1 expression in AVPs” value was “lower; also recorded: rescued” and the “Hey1 expression in AVPs” value is recorded as “lower; also recorded: rescued”.
Turning to heparin, the “secretion of soluble ROBO1-Ig5” value in the experiment with HEK-293 cells is on record as “trend of greater secretion”; in the experiment with HEK-293 cells (listed as Heparin), “modestly increases”.

B1: bovine ROBO1-Ig5: bovine ROBO1-Ig5 construct (Bos taurus ROBO1-Ig5, SEQ ID NO: 2) (protein, listed as Bos taurus)
chain: MIAEPAHFYLFGLICLCSGSRLRQEDFPPRIVEHPSDLIVSKGEPATLNCKAEGRPTPTIEWYKGGERVETDKDDPRSHRMLLPSGSLFFLRIVHGRKSRPDEGVYVCVARNYLGEAVSHNASLEVAILRDDFRQNPSDVMVAVGEPAVMECQPPRGHPEPTISWKKDGSPLDDKDERITIRGGKLMITYTRKSDAGKYVCVGTNMVGERESEVAELTVLERPSFVKRPSNLAVTVDDSAEFKCEARGDPVPTVRWRKDDGELPKSRYEIRDDHTLKIRKVTAGDMGSYTCVAENMVGKAEASATLTVQVGSEPPHFVVKPRDQVVALGRTVTFQCEATGNPQPAIFWRREGSQNLLFSYQPPQSSSRFSVSQTGDLTITNVQRSDVGYYICQTLNVAGSIITKAYLEVTDVIADRPPPVIRQGPVNQTVAVDGTLVLSCVATGSPVPTILWRKDGVLVSTQDSRIKQLETGVLQIRYAKLGDTGRYTCIASTPSGEATWSAYIEVQEF
Take B1: in the experiment with HC11 cells [2], the “dome formation in response to a titration of ECD fragments” value is “more domes; also recorded: increasing dome formation”.

B2: DCC-Ig4: extracellular domain of Deleted in Colorectal Cancer comprising four Ig domains, HA tagged, negative control (protein, listed as Rattus norvegicus)
chain: FTSLHFVSEPSDAVTMRGGNVLLNCSAESDRGVPVIKWKKDGLILALGMDDRKQQLPNGSLLIQNILHSRHHKPDEGLYQCEASLGDSGSIISRTAKVMVAGPLRFLSQTESITAFMGDTVLLKCEVIGDPMPTIHWQKNQQDLNPIPGDSRVVVLPSGALQISRLQPGDSGVYRCSARNPASTRTGNEAEVRILSDPGLHRQLYFLQRPSNVIAIEGKDAVLECCVSGYPPPSFTWLRGEEVIQLRSKKYSLLGGSNLLISNVTDDDSGTYTCVVTYKNENISASAELTVLVPPWFLNHPSNLYAYESMDIEFECAVSGKPVPTVNWMKNGDVVIPSDYFQIVGGSNLRILGVVKSDEGFYQCVAENEAGNAQSSAQLI
modifications: HA tag
notes: extracellular domain of Deleted in Colorectal Cancer comprising four Ig domains, HA tagged, negative control
B2: the “WAP gene expression by RT-qPCR” value in the experiment with HC11 cells [1] (HC11 cells, ECD fragments added simultaneously with DIP media, DCC-Ig4 0.7 μM) is recorded as “not increased; also recorded: no change”. Moreover, the “dome formation in response to a titration of ECD fragments” value in the experiment with HC11 cells [2] is “not observed”.
